Results on one compound are retold here after patent publication US20230296625A1, “CXCL14 AS PREDICTIVE BIOMARKER FOR ACUTE LIVER FAILURE AND DEATH” (University of Kansas, priority 2022, published 2023).

SMILES strings stand for the structures. Read-outs that look alike come from different tables or passages of the source.

The subject of series [1] is acetaminophen overdose patients. The following applies: human, in vivo. The method, then:
A series of experiments were performed in order to evaluate the relevance of the findings from the mouse model (FIGS. 1A-1C), and whether the data can be relevant to humans. Plasma samples ([…]) were from acetaminophen overdose patients, where the plasma samples include 10 survivors with low injury, 30 survivors with high injury and 19 non-survivors. 10 healthy volunteer plasma samples were also obtained for comparison. Patients were categorized based on alanine amino transferase (ALT) level, with survivors with very mild ALT elevations at < 100 U/L categorized as low injury and survivors with peak ALT of 6200 U/L categorized as high injury.
Since the time from acetaminophen exposure until the patient going to the clinic for treatment is highly variable, the day of peak ALT as day 1 was set for all patients to streamline data.
We measured CXCL14 in plasma of acetaminophen-induced injury patients for three days. To make the data more reliable due to the complicated admission day and time of acetaminophen being taken, Day 1 is chosen as the day of peak ALT. We observed no CXCL14 increase in low injury patients (<100 pg/mL). […] In contrast, we found CXCL14 level is significant increased at day 1 (7000 pg/mL), but its level keep elevated by day 3 (8000 pg/mL) with a much higher level compared to the survivors (FIG. 2B). Next, we want to determine whether CXCL14 level in plasma can predict patient outcome.
All results were expressed as mean ± SE. Comparisons between multiple groups were performed with one-way ANOVA or, where appropriate, by two-way ANOVA, followed by a post hoc Bonferroni test. If the data were not normally distributed, we used the Kruskal-Wallis Test (nonparametric ANOVA) followed by Dunn’s Multiple Comparisons Test. P < 0.05 was considered significant. Receiver operating characteristic analysis curve was performed to determine optimal threshold values to discriminate between survivors and non-survivors.

The next series has as its system human liver. The following applies: in vivo. The method, then:
A western blot analysis on the removed liver from a transplant recipient after acetaminophen overdose was carried out to determine whether circulating CXCL14 levels also reflected levels within the human liver. […] Therefore, the biological sample can be a blood sample (or plasma) or a liver sample.
Histology and Immunohistochemistry Formalin-fixed human and mouse tissue samples were embedded in paraffin and 5 µm sections were cut. Sections were stained with hematoxylin and eosin (H&E) for evaluation of the areas of necrosis. Additional liver sections were hydrated and went through antigen retrieval by boiling in sodium citrate buffer (pH 6.0). Liver sections were blocked in 3% BSA and serum then incubated with the primary antibodies overnight. Primary antibodies included anti-rabbit CD68 (Cell Signaling Technology, cat # 26042). Liver sections were washed and incubated in 3% hydrogen peroxide to block endogenous peroxidases. Biotinylated secondary antibody and DAB substrate were used to visualize the signals. Immunofluorescence staining was performed using 5 µm cryosections prepared from OCT-embedded tissue. Sections were blocked with 3% BSA and stained with anti-rabbit CXCL14 (Abcam, cat #264467). Fluorescence conjugated secondary antibodies Alexa Fluor 488 (Invitrogen, cat #A11034) goat anti rabbit was used.
Western blotting snap frozen tissue was homogenized in a CHAPs containing protein buffer and total protein was measured using the BCA assay (Pierce Scientific, Waltham, Massachusetts). Gel electrophoresis was carried out on protein lysates from individual samples, which were then transferred to a nitrocellulose blot.

Series [2] deals with fasted male C57BL/6J mice. The following applies: mouse, in vivo. The method, then:
The liver and plasma samples were collected between 6-72 hours after acetaminophen exposure.
ALT assay plasma alanine aminotransferase (ALT) activities were measured using an ALT test kit (Point Scientific, Inc, Canton, MI) per the manufacturer’s instruction.

Turning to `CC(=O)Nc1ccc(O)cc1` [acetaminophen, N-acetyl-p-aminophenol], in series [1], the ALT elevations was less than 100 U/L, the bilirubin was 12.5 mg/dL and the prothrombin times entry is recorded as “significantly higher”. In the series on human liver, the ALT came to 1620.9 U/L, the “hepatic levels of CXCL14 (western blot)” value was “Elevation in hepatic levels of CXCL14 are evident”, the “macrophage staining with CD68” value is reported as “significant increase in macrophage staining” and the “necrosis by H&E staining” value was “significant areas of necrosis”. In addition, in the series with human liver, the “staining for CXCL14 in liver sections” value is “significant elevations”. Besides, in series [2] (300 mg/kg), the “plasma ALT levels” value is reported as “return to baseline in both doses by 72 hours”. For the same compound, the “plasma ALT levels” value in series [2] (600 mg/kg) is recorded as “return to baseline in both doses by 72 hours”.
